According to US11173124B2, “Oral delivery of GLP-1 peptide analogs” (MEDIMMUNE LIMITED, priority 2017, dated 2021):
Each block holds one compound with its values, some of them ahead of it. Starred links: 1 amine or outer side, 2 acyl side, 3 side chain; linkers in the order of their positions; H or OH if unused. Non-standard residues stand in square brackets, D forms with d. Residues, ends and D or L forms follow the SMILES beside them. Groups on a side chain read outwards from the residue. ξ: configuration not given here. *: point of attachment. γGlu = O=C(O)[C@H](CCC(=O)[*:2])N[*:1]; Palmitoyl = CCCCCCCCCCCCCCCC(=O)*; ξαMeF = CC(N)(Cc1ccccc1)C(=O)O; Lauroyl = CCCCCCCCCCCC(=O)*; ξαMeK = CC(N)(CCCCN)C(=O)O; ξαMeS = CC(N)(CO)C(=O)O; AEEA = NCCOCCOCC(=O)O; Aib = CC(C)(N)C(=O)O

Tests used:
[1] = tested on: Gastrointestinal (GI) tract tissues; test: Microscopic evaluation of gastrointestinal tract tissues after intraduodenal dosing (Example 4); format: in vivo; settings: rat, following administration of 50 mg/kg sodium caprate
[2] = tested on: Caco-2 cells; test: Caco-2 study, Permeability (%) of lipidated peptides (Example 3); format: in vitro ADME, human; settings: 0.1 mg/mL peptide
From the text: The Caco-2 cell line is a continuous cell line of heterogeneous human epithelial colorectal adenocarcinoma cells, which when cultured under specific conditions, become differentiated and polarized such that their phenotype, morphologically and functionally, resembles the enterocytes lining the small intestine. Caco-2 cells express tight junctions, microvilli, and a number of enzymes and transporters that are characteristic of such enterocytes. Caco-2 cells are most commonly used as a tight junction monolayer that provides a physical and biochemical barrier to the passage of drugs and thus serves as an in vitro model of the human small intestinal mucosa to predict the absorption of orally administered drugs. Caco-2 permeability assays were performed by Cyprotex US, LLC (MA, USA) to assess the efficacy of different permeation enhancers. Caco-2 cells were grown on Transwell filters until a transepithelial electric resistance of ˜1000 ohms/cm^2 was achieved. The cells were incubated for three hours with media containing test samples on the apical (top) side of the cell layer, and with blank media on the basolateral (lower) side of the cell layer. Media from the apical and basolateral sides was collected separately after three hours and evaluated for the amount of peptide present on each side. Table 2 gives the permeability coefficient (Papp) of the various test samples, which include the SEQ ID NO:3 GLP-1 peptide in the presence of different excipients.
A following Caco-2 study was performed to evaluate the permeability of different peptides in the presence of various permeation enhancers. Permeability (%) was calculated by dividing the cumulative amount of molecules transported with the original loading amount. Concentrations of peptides in starting sample and apical and basal solutions after incubation for pre-determined periods were analyzed by HPLC. Sodium chenodeoxycholate at 25 mg/mL effected the highest permeability of each tested peptide (Table 4).

[3] = Third rat ID infusion study, stabilized peptides vs semaglutide (Example 6); settings: in vivo
Procedure: The third rat ID infusion study was performed to compare bioavailability of stabilized peptides MEDI7219 (SEQ ID NO:2) and SEQ ID NO:6 with that of semaglutide, H-His-Aib-[…]AEEAc-AEEAc-γ-Glu-17-carboxyheptadecanoyl)-[…]OH (SEQ ID NO:11), (Novo Nordisk), an un-stabilized GLP-1 peptide analog, that only has Aib in its sequence for protection from circulating DPP-IV peptidases, (Table 7 and FIG. 2B).

[4] = Canine tablet site of absorption study, SEQ ID NO:6 tablets in acid-resistant capsules or IntelliCap (Example 12); format: in vivo; settings: dog; for Tmax / half-life / AUC(0-t) / Cmax: in vivo; for bioavailability: plasma
Procedure: A third site of absorption study was performed to evaluate the absorption sites and tablet formulations in acid-resistant capsules in canines. The tablet manufacturing process was as follows: All ingredients were passed through a US sieve #35 (0.5 mm opening), and the resultant powder was compacted using a pellet press. Compacted material was again passed through a US sieve #35 (0.5 mm opening) to form granules. […] Tablets in this study were either placed in acid-resistant capsules (Table 18, Groups 1 and 2) or in IntelliCap® (Table 18, Groups 3 and 4).

[5] = in vivo; settings: dog, po
From the text: The following materials and methods were used for quantitative measurements of GLP-1 peptide analogs in plasma (e.g., rat or dog plasma) in the Examples below. These methods used a SCIEX 6600 TripleTOF mass spectrometer coupled with a Shimadzu ultra-high performance liquid chromatography (UHPLC). The specificity of the method was ensured by the retention time, the selected mass for Single-Reaction-Monitoring (SRM) mode, and the selected fragment mass in MS/MS (MS^2) mode. […] The analytes of interest were analyzed from plasma, a complex biological matrix. Although protein precipitation using organic solvent can reduce matrix interference, significant background still persists. The high mass accuracy offered by the TripleTOF mass spectrometers further eliminated background noise, thus enhancing signal: noise (S/N) and allowing improved quantification.
The plasma extraction procedure used the following steps: • Samples, standards, and quality controls were incubated until they reached room temperature. They were then incubated at 60° C. for 2 minutes and cooled down to room temperature, vortexed, and spun down. • 70 μL of samples, standards, or quality controls were transferred into a 1 mL 96-well plate. • In each well, 420 uL of Precipitation Solution was added. The plate was sealed and shook for 10 minutes on a plate shaker at 600 rpm. • The plate was centrifuged at 18G, 2500 RFC, 20° C. for 10 minutes. • The plate was carefully removed, and the upper clear supernatant was extracted with a 200 uL multichannel pipette into a new 96-well protein lobind plate. The supernatant was extracted twice for each well, and the supernatants were combined. • The Plate was placed in TurboVap and the extracted supernatant was dried completely with heated (65° C.) Nitrogen gas at 60 Fahrenheit (Fh). • After the plate was completely dry, the plates were covered and incubated at room temperature for at least 30 minutes until the plate returned back to ambient temperature. • 150 μL of Reconstitution solution was added to each well. The plate was covered with a pierceable place seal and shaken at 600 rpm for 10 minutes. • The samples were submitted to the LC-MS/MS on the same day of Preparation
Quantification of the data obtained using the high resolution SCIEX 6600 instrument was then performed as follows: • For the quantification, extracted ion chromatograms (XIC) using 0.2 Da m/z extraction window centered on the accurate mass of each fragment ion were generated. Accurate mass was calculated from the structure of the compound. […] Concentrations of the target analyte in unknown samples were obtained by regression analysis using linear fits of peak areas vs. analyte concentration, weighted 1/(concentration). • The quality of the assay was controlled by the quality control samples. • Either Experiment 1 or Experiment 2 could be used for the quantification of the GLP-1 peptide analogs in high resolution mode.
MEDI7219 (SEQ ID NO:2) formulations were studied in the following canine study, which was designed to compare different tablet delivery systems and peptides in enterically coated tablet formulation compositions delivered orally. […]
The efficacy of sodium caprate as a permeation enhancer was also evaluated.

[6] = canine, Intravenous, 0.031 mg/kg, 0.031 mg/mL peptide in Tris Mannitol, pH 8.0
[7] = canine, Oral IntelliCap released in proximal colon, 0.96 mg/kg, 10 mg peptide, 100 mg Na CDC, 50 mg PG tablet
[8] = canine, Oral, 0.54 mg/kg, 5 mg peptide, 100 mg Na CDC, 50 mg PG tablet in Acid-resistant capsule
[9] = canine, Oral, 1.08 mg/kg, 10 mg peptide, 100 mg Na CDC, 50 mg PG tablet in Acid-resistant capsule

Compound: CCCCCCCCCC(=O)[O-].[Na+] [sodium caprate]
Gastrointestinal (GI) tract tissues upon microscopic evaluation [1]: looked normal

Permeability (%) ([2]; 5.0 mg/mL Sodium Chenodeoxycholate): 1.21% | Permeability (%) ([2]; 25 mg/mL Sodium Chenodeoxycholate): 13.3% | half-life [3]: 9 h | bioavailability ([3]; 1 mg/kg): 1.2% | AUC ([3]; iv, 0.01 mg/kg): 1080 ng·h/mL | Cmax ([3]; iv, 0.01 mg/kg): 211 ng/mL | F ([3]; iv, 0.01 mg/kg): 100% | half-life ([3]; iv, 0.01 mg/kg): 9.2 h | Tmax ([4]; po, […]): 0.857 h | half-life ([4]; po, […]): 6.76 h | AUC(0-t) [4, 6]: 147 ± 19.9 ng·h/mL | Cmax [4, 6]: 27.3 ng/mL | Tmax [4, 6]: 0.444 h | half-life [4, 6]: 7.21 h | AUC(0-t) [4, 7]: 1490 ng·h/mL | Cmax [4, 7]: 210 ng/mL | Tmax [4, 7]: 2.14 h | half-life [4, 7]: 5.37 h | AUC(0-t) [4, 8]: 325 ± 467 ng·h/mL | Cmax [4, 8]: 47.3 ng/mL | Tmax [4, 8]: 1.64 h | half-life [4, 8]: 6.99 h | AUC(0-t) [4, 9]: 1970 ng·h/mL | Cmax [4, 9]: 279 ng/mL | Tmax [4, 9]: 1.79 h | half-life [4, 9]: 6.31 h | bioavailability ([4]; po, […]): 2.46% | bioavailability [4, 7]: 2.79% | bioavailability [4, 8]: 1.3% | bioavailability [4, 9]: 3.63%
Compound: CCCCCCCCCCCC(=O)N[C@@H](CCC(=O)NCCOCCOCC(=O)NCCOCCOCC(=O)NCCCC[C@H](NC(=O)[C@H](C)NC(=O)[C@@H](NC(=O)[C@H](Cc1ccccc1)NC(=O)[C@H](CCC(=O)O)NC(=O)C(C)(CCCCN)NC(=O)[C@H](C)NC(=O)[C@H](C)NC(=O)[C@H](CCC(=O)O)NC(=O)CNC(=O)[C@H](CCC(=O)O)NC(=O)[C@H](CC(C)C)NC(=O)[C@H](CCCCNC(=O)COCCOCCNC(=O)COCCOCCNC(=O)CC[C@H](NC(=O)CCCCCCCCCCC)C(=O)O)NC(=O)[C@H](CO)NC(=O)C(C)(CO)NC(=O)[C@@H](NC(=O)[C@H](CC(=O)O)NC(=O)[C@H](CO)NC(=O)[C@@H](NC(=O)C(C)(Cc1ccccc1)NC(=O)[C@H](CO)NC(=O)CNC(=O)[C@H](CCC(=O)O)NC(=O)C(C)(C)NC(=O)[C@@H](N)Cc1c[nH]cn1)[C@@H](C)O)C(C)C)[C@@H](C)CC)C(=O)N[C@H](C(=O)N[C@H](C(=O)N[C@@H](CCC(=O)O)C(=O)NCC(=O)NCC(N)=O)C(C)C)C(C)C)C(=O)O (some centres unmarked) [SEQ ID NO: 6, Free-H-[AIB]-EGS-[αMePhe]-TSDV-[αMeSer]-SK[(PEG2)2-γE-Lauroyl]-LEGEAA-[αMeLys]-EFIAK[(PEG2)2-γE-Lauroyl]-VVEGG-amide] (H-H[Aib]EGS[ξαMeF]TSDV[ξαMeS]SK([AEEA-AEEA-γGlu-Lauroyl])LEGEAA[ξαMeK]EFIAK([AEEA-AEEA-γGlu-Lauroyl])VVEGG-NH2)
F [3]: significantly higher absolute bioavailability via ID route than semaglutide

AUC [5]: 23700 ng·h/mL | PK variability [5]: 52.3% | half-life [5]: 33 h
Compound: CCCCCCCCCCCCCCCC(=O)N[C@@H](CCC(=O)NCCOCCOCC(=O)NCCOCCOCC(=O)NCCCC[C@H](NC(=O)[C@H](C)NC(=O)[C@@H](NC(=O)C(C)(Cc1ccccc1)NC(=O)[C@H](CCC(=O)O)NC(=O)C(C)(CCCCN)NC(=O)[C@H](C)NC(=O)[C@H](C)NC(=O)[C@H](CCC(=O)O)NC(=O)CNC(=O)[C@H](CCC(=O)O)NC(=O)[C@H](CC(C)C)NC(=O)[C@H](CCCCNC(=O)COCCOCCNC(=O)COCCOCCNC(=O)CC[C@H](NC(=O)CCCCCCCCCCCCCCC)C(=O)O)NC(=O)[C@H](CO)NC(=O)C(C)(CO)NC(=O)[C@@H](NC(=O)[C@H](CC(=O)O)NC(=O)[C@H](CO)NC(=O)[C@@H](NC(=O)C(C)(Cc1ccccc1)NC(=O)[C@H](CO)NC(=O)CNC(=O)[C@H](CCC(=O)O)NC(=O)C(C)(C)NC(=O)[C@@H](N)Cc1c[nH]cn1)[C@@H](C)O)C(C)C)[C@@H](C)CC)C(=O)N[C@H](C(=O)N[C@H](C(=O)N[C@@H](CCC(=O)O)C(=O)NCC(=O)NCC(N)=O)C(C)C)C(C)C)C(=O)O (some centres unmarked) [SEQ ID NO: 10, Free-H-[AIB]-EGS-[αMePhe]-TSDV-[αMeSer]-SK[(PEG2)2-γE-Palmitoyl]-LEGEAA-[αMeLys]-E-[αMePhe]-IAK[(PEG2)2-γE-Palmitoyl]-VVEGG-amide] (H-H[Aib]EGS[ξαMeF]TSDV[ξαMeS]SK([AEEA-AEEA-γGlu-Palmitoyl])LEGEAA[ξαMeK]E[ξαMeF]IAK([AEEA-AEEA-γGlu-Palmitoyl])VVEGG-NH2)
